The experiment has as its target T1, endoproteinase-Lys-C (Lysobacter enzymogenes, UniProt Q7M135).
T1 construct: consists of a chain of molecular weight 35000 to 38000 Dalton; made in house
In words: Inhibition of endoproteinase-Lys-C by protease inhibitors. Type of experiment: biochemical, Lysobacter enzymogenes ssp. enzymogenes.

Entries after “also recorded” stand apart in the source; their conditions may differ. Where two headings read alike, the source gives them in different places.

T1 sequence (Q7M135 whole entry): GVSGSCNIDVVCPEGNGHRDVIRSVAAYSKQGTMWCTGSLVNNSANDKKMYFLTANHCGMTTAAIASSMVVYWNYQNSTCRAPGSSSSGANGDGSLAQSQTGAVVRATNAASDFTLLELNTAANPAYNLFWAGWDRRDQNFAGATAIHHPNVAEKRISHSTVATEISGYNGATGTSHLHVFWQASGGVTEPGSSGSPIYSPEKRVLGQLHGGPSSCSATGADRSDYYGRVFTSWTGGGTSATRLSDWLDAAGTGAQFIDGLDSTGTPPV

With `N=C(N)c1ccccc1` [Benzamidine], the inhibition at 2500 µM (at 2.5 mM, read-out: inhibition of the enzyme) was around 50%. For the compound α2 -macroglobulin, the “inhibition of the enzyme” value is listed as “not inhibited”. In addition, the “inhibition of the enzyme” value (listed as alpha2 microglobulin) was “do not inhibit”. Turning to `O=C(O)CN(CCN(CC(=O)O)CC(=O)O)CC(=O)O` [ethylenediaminetetraacetic acid], the “inhibition of the enzyme” value is “not inhibited”. For the same compound, for the setting “EDTA up to 10^-2 M”, the “inhibition of the enzyme” value was “do not inhibit”. Consider aprotinin, for which the “inhibition of the enzyme” value is listed as “inhibited”. Further, the “inhibition of the enzyme” value (listed as Aprotonin) is recorded as “inhibits the enzyme completely”. For the compound α1 -antitrypsin, the “inhibition of the enzyme” value is on record as “not inhibited; also recorded: do not inhibit”.

(Values after patent US4414332A (Boehringer Mannheim GmbH, priority 1980, dated 1983).)
